| melting point [°C] | Compound |
| --- | --- |
| 119 to 120 | CCc1c(C(=O)c2cc(C)cc(C)c2)n(C/C=C/CN=[N+]=[N-])c(=O)[nH]c1=O |
| 146 to 148 | NNc1ncccc1Br |
| 96 to 104 | CNCc1ccc2cc(OC)ccc2c1 |
| 116 | Cc1cccc(SCC(=O)C23CC4CC(CC(C4)C2)C3)n1 |
| 166 to 170 | CC(C)c1ccc(NC(=O)Oc2ccc3c(c2)CCN3)cc1 |
| 145 to 147 | CN(C)CCCC(=O)N1CCC(c2[nH]nc3c2C(=O)c2c(NC(=O)NN4CCOCC4)cccc2-3)CC1 |
| 237 | O=C(O)c1cccc2c1S(=O)(=O)c1ccccc1C2=O |
| 67 to 69 | N#Cc1ccc(Oc2cccc(F)c2)cc1 |
| 149 to 152 | O=C(NCCO[N+](=O)[O-])c1csc(-c2cccc([N+](=O)[O-])c2)n1 |
| 187 to 189 | CS(=O)c1ccccc1CN1CCC(=O)C(C(c2ccc(F)cc2)c2ccc(F)cc2)C1 (stereo not drawn) |
| 219 | O=C(NCCN1CCOCC1)Nc1nc2ccc(OCc3c(F)cccc3F)cc2s1 |
| 90 to 91 | c1cc(OCC2CO2)c2cnsc2c1 (stereo not drawn) |
| 102 to 105 | O=C1c2cc([N+](=O)[O-])ccc2CC1Br (stereo not drawn) |
| 206 to 208 | COC(=O)C(C(=O)N1CCOCC1)C(c1ccccc1)c1cc2cc(Br)ccc2nc1OC (stereo not drawn) |
| > 245 | O=C(Nc1ccc(-n2nc(C(F)(F)F)cc2C(F)(F)F)cc1)c1ccc(O)cc1 |
| 188 to 189 | CCCCN(CCCC)c1ccc2nc3c4ccccc4c(=Nc4ccncc4)cc-3oc2c1 |
| 168 | CC(C)n1nc(-c2c(-c3ccccc3)nn3ccc(OCc4ccccc4)cc23)ccc1=O |
| 168 to 170 | CCc1nc2c(N)nc3cc(CCCNS(C)(=O)=O)ccc3c2n1CC1CCOCC1 |
| 94 | COC(=O)Cn1c(C(=O)OCc2ccccc2)cc2ccccc21 |
| 136 to 138 | OC1CSc2nc(SCc3ccccc3)nn21 (stereo not drawn) |
| 105 to 106 | CCCc1cc(C(=O)CCCC(=O)O)ccc1OC |
| 264 to 276 | COc1ccc(C(=O)O)c2c1oc1ccc(Cl)cc12 |
| 76 to 83 | O=C(O)c1cc(F)cc(C(F)(F)F)c1O |
| 161 to 163 | CCOC(=O)C(C)=NNc1ccc(Cl)c(F)c1 |
| 87 to 89 | CCOC(OCC)c1cn2cccc(CO)c2n1 |
| 129 to 130 | COc1cc(CCCC(=O)O)ccc1OCc1nc(-c2ccco2)oc1C |

| melting point [°C] | Compound |
| --- | --- |
| 218 to 220 | Oc1cc(-c2cc3n(n2)CCCC3)c(F)cc1Cl |
| 110 to 113 | CS(=O)(=O)NCC(=O)CCN1CCC(C2c3ncc(Br)cc3CCc3cc(Cl)cc(Cl)c32)CC1 (single isomer, unassigned; (+)) |
| 162 to 166 | N#Cc1cc(=O)c2ccc(CBr)cc2o1 |
| 224 to 227 | COC(=O)c1csc(-c2ccc([N+](=O)[O-])cc2)n1 |
| 171 to 174 | COCCc1nc2c(N)nc3ccccc3c2n1CCOCCNC(=O)Nc1ccccc1 |
| 260 to 261 | COc1cc(CN/C=C2\C(=O)NC(=O)c3ccc(Br)cc32)ccc1O |
| 152 to 153 | O=C(N[C@@H]1CCc2ccccc21)C(F)(F)F |
| 240 to 243 | CC1Cc2c(N3CCN(C)CC3)c(F)c(N)c3c(=O)c(C(=O)O)cn1c23 (stereo not drawn) |
| 291 | Cn1cc(CC(NC(=O)CCCC(=O)O)C(=O)NCCCCNC(=N)N)c2ccccc21 (stereo not drawn) |
| 225 to 227 | C1=c2ccccc2=c2c1c1cnccc1c1c2=Cc2ccccc2-1 |
| 138 to 140 | CCNC(=O)[C@@H]1C[C@H](OS(C)(=O)=O)CN1C(=O)OC(C)(C)C |
| 172 to 174 | CCOC(=O)C(=O)c1csc(NC(=O)Nc2c(C)cccc2C)n1 |
| 178 to 179 | CN(C)S(=O)(=O)c1c(C(F)(F)F)nn(-c2c(Cl)cc(C(F)(F)F)cc2Cl)c1N |
| 149 to 151 | CCOC(=O)C1CNc2cc(NS(C)(=O)=O)ccc2O1 (stereo not drawn) |
| 163 to 165 | CC1(C)CC(O)C(C)(C)c2cc(CC=Cc3ccccc3C#N)ccc21 (stereo not drawn) |
| 103 to 104 | N#CCC1CCN(C(c2ccccc2)c2ccccc2)CC1 |
| 138 to 140 | CCOC(=O)c1cnc2sc3c(c2c1O)CCCC3 |
| 175 to 177 | CCCCOC(=O)N1CCN(C(=O)c2cc(S(=O)(=O)N(C)C)ccc2N)CC1 |
| 75 to 76 | CCOC(=O)C(=CNNc1c(Cl)cc(C(F)(F)F)cc1Cl)C(C)=O |
| 215 to 216 | COc1ccccc1N1CCN(CCn2c(=O)c3sccc3n(CCC(=O)O)c2=O)CC1 |
| 141 to 143 | CCN(CC)c1c(C(=O)O)n(-c2ccccc2)c2ccc(OC)cc12 |
| 95 | COc1ccc(Cc2ccc3c(c2)OCO3)cc1C |
| 142 to 143 | ClC12CC3CC(CC(C3)C1=C1C3CC4CC(C3)CC1C4)C2 |
| 120 to 123 | NCCNC(=O)c1ccc2c(c1)OCO2 |
| > 300 | CSc1nn2c(=O)[nH]c(C)nc2c1S(=O)(=O)c1ccccc1 |
| 79 to 81 | CC(=O)N1CCSc2cccc(Cl)c2C1 |

| melting point [°C] | Compound |
| --- | --- |
| 133 to 136 | CCOC(=O)c1ccc(-c2ccc(-c3ccccc3OC)c(-c3ccc4c(c3)C(C)(C)CCC4(C)C)c2)cc1 |
| 162 to 163 | CC(C)C(=C(c1ccccc1)c1ccccc1)P(C1CCCCC1)C1CCCCC1 |
| 62 | CCC1(COC(=O)c2cccc3ccccc23)COC1 |
| 160 | N#CCOc1ccc(-c2ccc(=O)n(Cc3ccc(Cl)cc3F)c2)cc1 |
| 141 to 142 | COC(=O)C1C(N2C(=O)c3ccccc3C2=O)C(=O)N1Cc1ccc(OC)cc1 (stereo not drawn) |
| 92 to 94 | Cn1c(=O)c(-c2ccccc2Cl)cc2cnc(NC3C4CN(Cc5ccccc5)CC43)nc21 (stereo not drawn) |
| 157 to 158 | Cc1nc2cccc3n(CCCNS(=O)(=O)CC(F)(F)F)c(=O)c1n23 |
| 107 to 110 | O=Cc1ccc(N(c2ccccc2)c2ccccc2)c2ccccc12 |
| 56 | N#Cc1ccccc1COc1cccc(Cl)c1 |
| 154 | O=C(c1ccc(Cl)cc1)c1cccc(O)c1 |
| 209 to 212 | COc1cc(Cc2cnc(N)nc2N)c2cc(C)oc2c1OC |
| 175 to 179 | CC(=O)NC[C@H]1CN(c2ccc(N3CCC(=CC4(C#N)CC4)CC3)c(F)c2)C(=O)O1 |
| 87 to 90 | Cc1nn(C)c2c(Cl)nc(C3CC3)nc12 |
| 86 to 87 | Cc1cc(C)c2c(c1O)C(=O)C(C)(Cc1ccccc1)C2 (stereo not drawn) |
| 100 to 103 | CCCCCCCCCCCCCCOc1ccc(CC(=O)Nc2ccccc2CBr)cc1 |
| 282 | CN(C)Cc1ccc2c(c1)nnn2Cc1c(Cl)c(Cl)cc2[nH]c(=O)c(=O)[nH]c12 |
| 118 to 120 | CN(CC1(c2ccccc2)CC(O)=CC(=O)O1)c1ccccc1 (stereo not drawn) |
| 172 to 174 | CCCCCCCC1=CC(=O)OC1(O)CNc1ccccc1 (stereo not drawn) |
| 88.9 to 90 | O=C(NCCCc1ccncc1)N(CCCC12CC3CC(CC(C3)C1)C2)CC(F)(F)F |
| 168 to 171 | OCc1nc2n(n1)-c1ccccc1N(c1cccc(C(F)(F)F)c1)C2 |
| 198 to 200 | O=C(O)C(=O)Nc1ccc2c(=O)n3c(nc2c1)C(=Cc1ccccc1)CC3 |
| 115 to 120 | COc1ccc(CNc2nc(OCc3ccccn3)ncc2C(=O)OCc2ccccn2)cc1Cl |
| 150 | CC1CCCCN1C(=O)c1nc(-c2ccccc2)nc2ccccc12 (stereo not drawn) |
| 84 to 86 | CC1(C)CCC(=O)CC1S(=O)(=O)c1ccccc1 (stereo not drawn) |
| 46 to 47 | O=C1OCCC1N[C@@H](Cc1ccccc1)C(=O)OCc1ccccc1 (stereo partly drawn) |
| 104 to 106 | CCC(=O)NCCc1cnn2ccc3occc3c12 |

| melting point [°C] | Compound |
| --- | --- |
| 246 | CCCC(=O)Nc1n[nH]c2cc(-c3ccc(C(C)(C)C)cc3)ccc12 |
| 203 to 204 | COC(=O)C(c1ccc(O)cc1)N1CC(N2C(=O)c3ccccc3C2=O)C1=O (stereo not drawn) |
| 135 to 140 | CC1(C)CC2(CC(C)(C)N1c1nc(N(CCO)CCO)nc(N3CCOCC3)n1)OCCO2 |
| 146 to 147 | O=C1C(=O)N(CCN2CCN(Cc3ccc(F)cc3)CC2)c2ccccc21 |
| 196 | N#Cc1cccc(C2=Nc3ccc(C#CC4(O)CCCCC4)cc3NC(=O)C2)c1 |
| 124 to 134 | CCCN(CCC)C(=O)COC1Cc2cccc(OCC(O)CNC(C)(C)C)c2CC1OCC(=O)N(CCC)CCC (stereo not drawn) |
| 125 to 126 | Cc1ccc2c(c1)C(C=O)c1ccccc1C2C=O (stereo not drawn) |
| 113 to 115 | CCCS(=O)(=O)c1cc(C(C)C)c(C#N)cc1C(C)C |
| 204 | CNC(=O)OC(Cn1cncn1)c1ccc(Cl)cc1Cl (stereo not drawn) |
| 126 to 127 | O=[N+]([O-])c1cn(CC(I)=C(I)I)c(Cl)c1Cl |
| 284 to 290 | O=C1C2=C(NC3(C=N2)SCCS3)c2ccccc21 |
| 105 | Cc1cccc(-c2cccc(-c3nc(C)cc(Cl)n3)n2)c1 |
| 144 to 145 | OC1CCCCCC/C1=C\Br (stereo not drawn) |
| 105 to 106 | CC(C)OC(=O)n1ncc2cc(C(O)(c3cn(C)c4ccccc34)C(F)(F)F)ccc21 (stereo not drawn) |
| 306 to 310 | O=C1N=C(N2CCOCC2)SC1=Cc1cc(-c2ccc(O)c(C34CC5CC(CC(C5)C3)C4)c2)c(O)cc1O |
| 66 to 67 | C#CCN(C)CC1=Cc2ccccc2Oc2ccccc21 |
| 158 to 160 | Oc1cc2c(c(Cl)c1Cl)C(O)C(C1CCCC1)C2 (stereo not drawn) |
| 99 to 103 | COC(=O)C(C(=O)OC)c1ccccc1COc1ccccc1C |
| 95 to 98 | COC(=O)CCCCc1cc2cc(Cl)ccc2n1S(=O)(=O)c1ccccc1 |
| 231 to 235 | CCc1cc(=O)c2nc(OC(C)C)c(Cl)cc2[nH]1 |
| 157 to 158 | CC(C)CN1N(C)Nc2c3ncnc-3c3ccncc3n21 |
| 85 to 89 | CNCC1Cc2cc(C)cc(-c3cccc(OC)c3OC)c2O1 (stereo not drawn) |
| 192 to 195 | Cc1ccccc1-c1noc2c3c(c(Cl)cc12)OC(C(=O)O)C3 (stereo not drawn) |

| Compound | melting point [°C] |
| --- | --- |
| Cc1c(SCCCl)ccnc1CSc1nc2ccccc2[nH]1 | 178 to 180 |
| CCOC=Nc1c(SC(F)(F)F)c(C#N)nn1-c1c(Cl)cc(C(F)(F)F)cc1Cl | 68 |

Reference: a melting point compilation (Tetko et al.; mined from patent text by program, amines drawn as free bases though some values may be those of a salt)
